Patent publication US11214803B2, “Modulators of YAP1 expression” (Ionis Pharmaceuticals, Inc., priority 2019, dated 2022)
Strand notation (5' to 3'): a small letter for the sugar, then the base; units joined by * are phosphorothioate-linked, units joined directly phosphodiester-linked; [ ] holds rarer units or linkages, { } end groups; capitals alone tell only the bases. k = constrained ethyl (cEt); [5mC] = 5-methylcytosine; d = 2'-deoxy (DNA)

System: Yap1 mRNA
Assay: Antisense inhibition of human Yap1 in A-431 cells by cEt gapmers, single dose (Example 1, RTS4814)
Format: cell-based
Details: A-431 cells, 5,000 cells per well, free uptake, 2,000 nM modified oligonucleotide, approx. 48 hours, RTS4814, normalized to RIBOGREEN; Table 3
Method: Modified oligonucleotides were designed to target a Yap1 nucleic acid and were tested for their effect on Yap1 mRNA level in vitro. The modified oligonucleotides were tested in a series of experiments that had similar culture conditions. Cultured A-431 cells at a density of 5,000 cells per well were treated using free uptake with 2,000 nM of modified oligonucleotide. After a treatment period of approximately 48 hours, RNA was isolated from the cells and Yap1 mRNA levels were measured by quantitative real-time RTPCR. Human primer probe set RTS4814 (forward sequence […], designated herein as SEQ ID NO.: 11; reverse sequence […], designated herein as SEQ ID NO.: 12; probe sequence […], designated herein as SEQ ID NO.: 13) was used to measure mRNA levels. Yap1 mRNA levels were normalized to total RNA content, as measured by RIBOGREEN®. Results are presented in the tables below as percent control of the amount of Yap1 mRNA relative to untreated control cells (% UTC). The modified oligonucleotides with percent control values marked with an asterisk (*) target the amplicon region of the primer probe set. Additional assays may be used to measure the potency and efficacy of the modified oligonucleotides targeting the amplicon region.
The newly designed modified oligonucleotides in the Tables below were designed as 3-10-3 cEt gapmers. The gapmers are 16 nucleosides in length, wherein the central gap segment comprises of ten 2′-deoxynucleosides and is flanked by wing segments on the 5′ direction and the 3′ direction comprising three nucleosides each. Each nucleoside in the 5′ wing segment and each nucleoside in the 3′ wing segment has a cEt sugar modification. The internucleoside linkages throughout each gapmer are phosphorothioate (P═S) linkages. All cytosine residues throughout each gapmer are 5-methylcytosines.
“Start site” indicates the 5′-most nucleoside to which the gapmer is targeted in the human gene sequence. “Stop site” indicates the 3′-most nucleoside to which the gapmer is targeted human gene sequence. […] Activity of the modified oligonucleotide may be defined in a different experiment.

Row | Substance | YAP1 (% UTC)
1 | 715468 (antisense kG*k[5mC]*kT*dT*dG*dG*dT*dG*dG*d[5mC]*dA*dG*d[5mC]*k[5mC]*kA*kA) [Compound 715468] | 90 % UTC
2 | 715600 (antisense kA*kA*kT*dT*d[5mC]*d[5mC]*d[5mC]*dA*dA*dG*d[5mC]*dT*dA*k[5mC]*k[5mC]*k[5mC]) [Compound 715600] | 82 % UTC
3 | 715597 (antisense k[5mC]*kT*kG*dG*dT*dT*d[5mC]*dA*dT*dG*dG*d[5mC]*dT*kG*kA*kA) [Compound 715597] | 89 % UTC
4 | 715462 (antisense kT*k[5mC]*kT*d[5mC]*dA*dT*d[5mC]*dT*d[5mC]*dG*dA*dG*dA*kG*kT*kG) [Compound 715462] | 94 % UTC
5 | 715582 (kG*kT*k[5mC]*dA*dA*dG*d[5mC]*d[5mC]*dT*dG*dT*d[5mC]*dT*kG*kG*kA; antisense) [Compound 715582] | 33 % UTC
6 | 715504 (antisense kT*kG*kG*dT*dT*dT*dA*dT*dT*dG*dT*dA*dA*kA*kA*kG) [Compound 715504] | 70 % UTC
7 | 715558 (k[5mC]*kA*kG*dG*dA*dA*dG*dT*dT*dA*dT*dT*d[5mC]*kA*kG*k[5mC]; antisense) [Compound 715558] | 37 % UTC
8 | 715423 (k[5mC]*k[5mC]*kA*dT*dG*dT*dT*dG*dT*dT*dG*dT*d[5mC]*kT*kG*kA; antisense) [Compound 715423] | 30 % UTC
9 | 715588 (kA*kG*k[5mC]*dA*dG*d[5mC]*dT*dA*dA*d[5mC]*dA*dG*d[5mC]*kT*kT*kG; antisense) [Compound 715588] | 96 % UTC
10 | 715561 (k[5mC]*kA*k[5mC]*dA*dA*d[5mC]*dT*d[5mC]*dA*dG*dA*d[5mC]*dA*kG*kG*kG; antisense) [Compound 715561] | 69 % UTC
11 | 715525 (kT*kT*kA*d[5mC]*dT*dT*dT*dA*dA*dG*dA*dA*dG*kT*kA*kT; antisense) [Compound 715525] | 100 % UTC
12 | 715471 (antisense kT*kA*kT*d[5mC]*dT*dA*dG*d[5mC]*dT*dT*dG*dG*dT*kG*kG*k[5mC]) [Compound 715471] | 36 % UTC
13 | 715438 (antisense kT*kT*k[5mC]*dA*dT*dG*dG*d[5mC]*dA*dA*dA*dA*d[5mC]*kG*kA*kG) [Compound 715438] | 82 % UTC
14 | 715507 (antisense kT*kG*kG*dG*dA*dT*dT*dG*dA*dT*dA*dT*dT*k[5mC]*k[5mC]*kG) [Compound 715507] | 95 % UTC
15 | 715411 (kG*k[5mC]*kA*dT*d[5mC]*dA*dG*dT*dA*d[5mC]*dT*dG*dG*k[5mC]*k[5mC]*kT; antisense) [Compound 715411] | 94 % UTC
16 | 715432 (k[5mC]*kT*k[5mC]*d[5mC]*dA*dT*d[5mC]*d[5mC]*dT*dG*dA*dG*dT*k[5mC]*kA*kT; antisense) [Compound 715432] | 65 % UTC
17 | 715444 (antisense kT*k[5mC]*k[5mC]*d[5mC]*dT*dG*dT*dG*dG*dG*d[5mC]*dT*d[5mC]*kT*kG*kG) [Compound 715444] | 84 % UTC
18 | 715576 (kA*kA*k[5mC]*d[5mC]*dT*dT*dT*dA*d[5mC]*d[5mC]*dA*dA*dA*kA*k[5mC]*kG; antisense) [Compound 715576] | 80 % UTC

Same assay, conditions: Table 1; A-431 cells, free uptake, 2,000 nM, approximately 48 hours, RTS4814; Yap1 mRNA relative to untreated control cells

Row | Substance | YAP1 (% UTC)
19 | 715499 (antisense kT*kA*kT*dG*dA*dA*d[5mC]*d[5mC]*d[5mC]*dT*dT*dG*dA*kA*kA*kA) [Compound 715499] | 126 % UTC
20 | 715493 (antisense kG*kT*kG*d[5mC]*dT*dA*dG*d[5mC]*dT*dG*dG*dT*dG*k[5mC]*k[5mC]*kA) [Compound 715493] | 62 % UTC
21 | 715598 (antisense k[5mC]*k[5mC]*k[5mC]*dA*dA*dG*d[5mC]*dT*dA*d[5mC]*d[5mC]*d[5mC]*dA*kA*kG*kA) [Compound 715598] | 103 % UTC
22 | 715631 (antisense kA*kT*kA*dA*dG*dA*dG*d[5mC]*d[5mC]*dT*dA*d[5mC]*d[5mC]*kT*kG*kA) [Compound 715631] | 134 % UTC
23 | 715433 (antisense kT*kG*kT*dT*d[5mC]*dT*dT*dA*dT*dG*dG*dT*dT*kT*kA*kT) [Compound 715433] | 36 % UTC
24 | 715418 (kA*kG*kT*dG*dT*d[5mC]*d[5mC]*d[5mC]*dA*dG*dG*dA*dG*kA*kA*kA; antisense) [Compound 715418] | 126 % UTC
25 | 715490 (antisense k[5mC]*k[5mC]*kA*dA*d[5mC]*dT*dA*dT*dT*dA*d[5mC]*dT*dT*k[5mC]*kA*kT) [Compound 715490] | 38 % UTC
26 | 715478 (antisense kA*k[5mC]*k[5mC]*dA*dT*dT*dA*dT*dT*dA*d[5mC]*dT*d[5mC]*k[5mC]*kT*kG) [Compound 715478] | 7 % UTC
27 | 715610 (antisense kG*kG*k[5mC]*dT*dG*dT*dG*dT*dA*dG*dG*d[5mC]*dT*kG*kA*k[5mC]) [Compound 715610] | 87 % UTC
28 | 715556 (kA*kA*kG*dT*dT*dA*dT*dT*d[5mC]*dA*dG*d[5mC]*dA*kG*k[5mC]*kT; antisense) [Compound 715556] | 63 % UTC
29 | 715412 (k[5mC]*kT*kG*d[5mC]*dA*dT*d[5mC]*dA*dG*dT*dA*d[5mC]*dT*kG*kG*k[5mC]; antisense) [Compound 715412] | 66 % UTC
30 | 715463 (antisense k[5mC]*kT*kG*dT*dA*dG*d[5mC]*dT*dG*d[5mC]*dT*d[5mC]*dA*kT*kG*k[5mC]) [Compound 715463] | 73 % UTC
31 | 715427 (k[5mC]*k[5mC]*kA*dT*d[5mC]*d[5mC]*dA*dT*d[5mC]*dA*dG*dG*dA*kA*kG*kA; antisense) [Compound 715427] | 90 % UTC
32 | 715586 (kA*kA*kA*dA*dG*dG*dT*d[5mC]*dT*dG*dG*dA*dA*k[5mC]*kA*kG; antisense) [Compound 715586] | 53 % UTC
33 | 715409 (k[5mC]*kA*kG*dT*dA*d[5mC]*dT*dG*dG*d[5mC]*d[5mC]*dT*dG*kT*k[5mC]*kG; antisense) [Compound 715409] | 76 % UTC

Same assay, conditions: Table 2; A-431 cells, free uptake, 2,000 nM, approximately 48 hours, RTS4814; Yap1 mRNA relative to untreated control cells

Row | Substance | YAP1 (% UTC)
34 | 715461 (antisense kT*k[5mC]*kA*dT*d[5mC]*dT*d[5mC]*dG*dA*dG*dA*dG*dT*kG*kA*kT) [Compound 715461] | 153 % UTC
35 | 715437 (antisense k[5mC]*kA*kT*dG*dG*d[5mC]*dA*dA*dA*dA*d[5mC]*dG*dA*kG*kG*kG) [Compound 715437] | 89 % UTC
36 | 715581 (kA*kA*kG*d[5mC]*d[5mC]*dT*dG*dT*d[5mC]*dT*dG*dG*dA*kA*kT*kA; antisense) [Compound 715581] | 106 % UTC
37 | 715602 (antisense kA*k[5mC]*kA*dG*dA*dA*dT*dT*d[5mC]*d[5mC]*d[5mC]*dA*dA*kG*k[5mC]*kT) [Compound 715602] | 110 % UTC
38 | 715479 (antisense kA*kA*kA*d[5mC]*d[5mC]*dA*dT*dT*dA*dT*dT*dA*d[5mC]*kT*k[5mC]*k[5mC]) [Compound 715479] | 38 % UTC
39 | 715509 (antisense kT*kG*k[5mC]*dT*dG*dT*dG*d[5mC]*dT*dG*dG*dG*dA*kT*kT*kG) [Compound 715509] | 42 % UTC
40 | 715611 (antisense k[5mC]*kT*kT*dT*dA*dA*dG*d[5mC]*d[5mC]*dA*d[5mC]*dA*dT*kG*kG*kT) [Compound 715611] | 106 % UTC
41 | 715632 (antisense kA*kT*k[5mC]*d[5mC]*dA*dA*dT*dT*dA*dT*dG*dT*d[5mC]*k[5mC]*k[5mC]*kA) [Compound 715632] | 109 % UTC
42 | 715512 (antisense kA*kG*kG*d[5mC]*dG*d[5mC]*dG*d[5mC]*dG*d[5mC]*dA*dT*dT*kG*kT*kG) [Compound 715512] | 97 % UTC
43 | 715455 (antisense kT*kG*kA*dT*dA*dG*dG*dT*dG*d[5mC]*d[5mC]*dA*d[5mC]*kT*kG*kT) [Compound 715455] | 65 % UTC
44 | 715542 (kT*kA*k[5mC]*dT*dT*dG*dA*dA*dG*dA*dA*d[5mC]*dT*kA*kT*kT; antisense) [Compound 715542] | 120 % UTC
45 | 715617 (antisense kA*kA*kG*dA*d[5mC]*dG*dG*dA*dT*dA*dA*dA*dA*kA*kT*kT) [Compound 715617] | 98 % UTC
46 | 715464 (antisense k[5mC]*k[5mC]*kA*d[5mC]*dA*dT*dT*dT*dG*dT*d[5mC]*d[5mC]*d[5mC]*kA*kG*kG) [Compound 715464] | 89 % UTC
47 | 715554 (kT*kA*kT*dT*d[5mC]*dA*dG*d[5mC]*dA*dG*d[5mC]*dT*dT*kA*kT*kA; antisense) [Compound 715554] | 93 % UTC
